Converted amounts (≈) assume the structure as drawn. Read-outs that look alike come from different tables or passages of the source.
Legend:
[1] = target: hERG potassium channel (Homo sapiens (Human), UniProt Q12809); assay: hERG assay (automated patch-clamp, CHO-hERG cells); assay type: cell-based; details: Qpatch, highest assayed concentration 40 μM
Description: A fully automated patch-clamp method was used to assay the effect of the compound on hERG potassium channel (human Ether-a-go-go Related Gene potassium channel) current.
CHO-hERG cells were cultured in a 175 cm^2 culture flask. When cells grew to a density of 60˜80%, the culture medium was removed. Cells were washed once with 7 mL of PBS (Phosphate Buffered Saline), and then 3 mL of Detachin was added for digestion. After the digestion was completed, 7 mL of culture medium was added for neutralization, and then the mixture was centrifuged. The supernatant was aspirated, and then 5 mL of culture medium was added to resuspend the cells and ensure that the cell density was 2˜5×10^6/mL.
Extracellular solution formulation (mM): 140 NaCl, 5 KCl, 1 CaCl2), 1.25 MgCl2, 10 HEPES and 10 Glucose; the formulation was adjusted to pH of 7.4 with NaOH. […]
The single-cell high-impedance sealing and whole-cell pattern formation processes were all automatically performed by a Qpatch instrument. […] This voltage stimulation was applied every 15 seconds, and recorded for 2 minutes. The extracellular solution was then given, and recorded for 5 minutes. […]
Assay data were analyzed by GraphPad Prism 5.0 software. […]
• The inhibitory effect of Cisapride with multiple concentrations on the hERG channel was measured as a positive control.

[2] = Solubility study (HPLC-UV, 24 h shaking); assay type: physicochemical; details: 25 °C, aqueous buffer, kinetic from dmso stock, 2% DMSO, max 200 μM
Description: The solubility of a compound was determined to evaluate the solubility property of the compound.
• 1) Buffer A (pH 2.0): 50 mM phosphate buffer, pH 2.0; Buffer B (pH 6.5): 50 mM phosphate buffer, pH 6.5; Buffer C (pH 7.4): 50 mM phosphate buffer, pH 7.4; • 2) Preparation of standard solution: • a) 50% acetonitrile solution and 50% buffer solution were mixed to obtain a diluent; • b) 10 mM (10 μL/compound) compound stock solution was added to the diluent (490 μL/compound) to obtain 200 μM detection standard solution; • c) The 200 μM UV detection standard solution was diluted with 10-fold and 200-fold volume of diluents to obtain 20 μM and 1 μM UV standard solutions, respectively; • d) 1 μM, 20 μM, and 200 μM UV standard solutions were used as standard solutions for solubility assay.
• a) The compound was dissolved in DMSO to prepare a 10 mM stock solution. […] The pH of the corresponding solubility solutions was 2.0, 6.5 and 7.4, respectively. The theoretical maximum concentration of the assay compound is 200 μM with 2% DMSO; • c) The plate was shaken in a shaker at room temperature (25±2° C.) at 600 rpm for 24 hours; • d) 200 μL of the solution was pipetted from the 96-well plate, filtered with suction by a vacuum suction filtration device, and transferred into a new 96-well plate as an assay sample; • e) The compound concentration was determined using HPLC-UV.
• f) Three UV standard solutions from low concentration to high concentration (1 μM, 20 μM, 200 μM) were injected into HPLC, and then the assay sample of the compound to be assayed was injected; • g) The UV chromatographic peaks were integrated, and the solubility of the sample was calculated.

Chain of hERG potassium channel (Q12809 whole entry): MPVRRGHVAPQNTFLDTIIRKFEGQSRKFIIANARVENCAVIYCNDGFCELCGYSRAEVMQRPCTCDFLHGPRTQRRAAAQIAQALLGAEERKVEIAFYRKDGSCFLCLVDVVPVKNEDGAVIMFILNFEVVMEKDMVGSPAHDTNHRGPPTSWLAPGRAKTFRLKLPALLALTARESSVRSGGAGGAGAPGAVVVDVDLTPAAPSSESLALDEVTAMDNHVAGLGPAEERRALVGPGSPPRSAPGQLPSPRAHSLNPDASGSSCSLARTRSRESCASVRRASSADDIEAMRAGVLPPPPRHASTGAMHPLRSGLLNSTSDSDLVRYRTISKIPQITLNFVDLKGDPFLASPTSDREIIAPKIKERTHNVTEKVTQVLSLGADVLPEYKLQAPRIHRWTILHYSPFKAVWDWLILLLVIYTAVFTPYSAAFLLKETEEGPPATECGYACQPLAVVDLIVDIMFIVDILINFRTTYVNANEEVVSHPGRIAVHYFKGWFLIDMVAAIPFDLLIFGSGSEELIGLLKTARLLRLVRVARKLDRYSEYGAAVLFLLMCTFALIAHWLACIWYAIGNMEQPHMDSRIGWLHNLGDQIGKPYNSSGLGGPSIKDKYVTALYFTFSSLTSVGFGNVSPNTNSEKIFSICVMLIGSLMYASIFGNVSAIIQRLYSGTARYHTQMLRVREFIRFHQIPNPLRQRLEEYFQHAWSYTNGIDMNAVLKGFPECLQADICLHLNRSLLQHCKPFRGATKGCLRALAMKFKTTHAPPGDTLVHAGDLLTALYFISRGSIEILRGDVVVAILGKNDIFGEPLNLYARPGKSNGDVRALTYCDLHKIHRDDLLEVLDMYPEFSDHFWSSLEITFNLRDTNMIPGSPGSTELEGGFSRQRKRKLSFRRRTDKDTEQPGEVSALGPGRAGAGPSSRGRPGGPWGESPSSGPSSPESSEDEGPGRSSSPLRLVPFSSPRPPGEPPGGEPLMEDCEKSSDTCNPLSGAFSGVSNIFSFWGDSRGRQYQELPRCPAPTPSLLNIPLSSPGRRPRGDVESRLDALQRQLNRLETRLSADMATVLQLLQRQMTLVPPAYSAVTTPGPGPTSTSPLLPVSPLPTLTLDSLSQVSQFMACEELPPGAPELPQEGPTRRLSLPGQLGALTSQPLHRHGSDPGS

In the case of `Cc1cccc(CN2C(=O)c3nc(-c4nc(Nc5ccnn5C)ncc4C)sc3C2(C)C)n1` [WX001], the IC50 [1] is reported as greater than 40 µM, the solubility at 24 h ([2]; 50 mM phosphate buffer pH 2.0, 25±2° C., read-out: Solubility pH = 2.0) is reported as greater than 200 µM and the solubility at 24 h ([2]; 50 mM phosphate buffer pH 6.5, 25±2° C., read-out: Solubility pH = 6.5) is reported as 6.2 µM (≈ 2.86 µg/mL). It also gave a solubility at 24 h ([2]; 50 mM phosphate buffer pH 7.4, 25±2° C., read-out: Solubility pH = 7.4) of 7.08 µM (≈ 3.26 µg/mL).
